Source: US7833331B2, “Non-toxic corrosion-protection pigments based on cobalt” (University of Dayton, priority 2007, dated 2010)
Values joined by “and” are separate entries in the source; they are usually repeats but may differ in a detail not shown here. Identical values can stand only once. “Also recorded” adds a separate entry of the source. Like-named read-outs stand apart in the source and are kept apart here.

Legend:
[1] = Accelerated corrosion testing (both ASTM B-117 and G-85.5) of PVB wash primers, overall observation
Procedure: The corrosion inhibiting performance of CoIII pigments was evaluated by incorporating them into primer paint formulations. […] The wash primer is composed of a resin, an acid, a corrosion inhibiting pigment, powdered talc, and carbon lampblack. The acid content of this wash primer provides a rigorous initial test of the stability and performance of the pigments. Other, more benign, polymer-based binder and resin systems might not separate the compounds based on their performance as effectively or as rapidly.
PVB was used exclusively throughout testing to avoid preparation and compositional complications during analysis of pigment performance. However, the invention is not limited to the use of PVB.
A small amount (0.2 g) of powdered talc (magnesium silicate) “filler” was added. Lampblack was not added to these samples. These components were mixed thoroughly by hand and 3.8 g of phosphoric acid diluent added with further mixing. This rough processing allowed direct comparisons of pigment performance to be made without complications due to powder treatments, modifications, and additives.
This is not the conventional paint application procedure for aluminum alloys. Under normal service conditions, aluminum alloys are first subjected to a hexavalent chromium-containing conversion coating prior to primer application. However, the conversion coating was omitted so that the performance of the pigment alone could be evaluated and not the synergistic effects of hexavalent chromium (in the conversion coating) or even of barrier films (in the phosphate or anodized coatings).
This accelerated corrosion test exposes samples to a constant salt-water fog and is a de facto test of solubility for corrosion inhibitors. […] This accelerated corrosion test exposes samples to a cycle of fog of dilute salt and ammonium sulfate at room temperature followed by forced-air drying at an elevated temperature.
Chromate pigments were precipitated from aqueous synthesis solutions and incorporated into PVB wash primer formulations so that each primer sample had the same molar quantity of hexavalent chromium. […] After the samples had dried for 24 hours, they were scribed and the edges of each sample taped to eliminate edge effects.
Wash primer coatings containing these pigments were prepared wherein the trivalent cobalt was present in identical molar concentrations from sample to sample. […] Pigments were made with chloride, bromide, sulfate, hexafluorosilicate, phosphate, molybdate, tungstate, and phosphomolybdate anions. Additionally, […] was also used as a pigment for this application.

[2] = ASTM G-85.5 cyclic Prohesion test of PVB wash primer with pigment, rated by ASTM D-1654; details: ASTM D-1654 rating; for 2024-T3 G-85 Proc. A / 7075-T6 G-85 Proc. A: failure at scribe; for 2024-T3 G-85 Proc. B / 7075-T6 G-85 Proc. B: failure in unscribed areas
Procedure: (§1) The corrosion inhibiting performance of CoIII pigments was evaluated by incorporating them into primer paint formulations. The acid wash primer paint formulations called out in DoD-P-15328 [Primer (Wash), Pretreatment (Formulation No. 117 for Metals)] were used to test the various pigments. The wash primer is composed of a resin, an acid, a corrosion inhibiting pigment, powdered talc, and carbon lampblack. The acid content of this wash primer provides a rigorous initial test of the stability and performance of the pigments. Other, more benign, polymer-based binder and resin systems might not separate the compounds based on their performance as effectively or as rapidly. The base solution for the wash primer in this specification was prepared by mixing 88.3 grams of isopropanol, 31.3 grams of n-butanol, and 3.8 grams of deionized water with 14 grams of poly(vinyl butyral) resin (PVB) (Monsanto Butvar B-90TM). PVB was used exclusively throughout testing to avoid preparation and compositional complications during analysis of pigment performance. However, the invention is not limited to the use of PVB. Acid diluent was prepared by mixing 70 grams of 85% phosphoric acid, 63 grams of deionized water, and 247 grams of isopropanol. Finely-ground pigment powder was measured out and added to 13.74 grams of the base solution for each paint to be tested. A small amount (0.2 g) of powdered talc (magnesium silicate) “filler” was added. Lampblack was not added to these samples. These components were mixed thoroughly by hand and 3.8 g of phosphoric acid diluent added with further mixing. This rough processing allowed direct comparisons of pigment performance to be made without complications due to powder treatments, modifications, and additives. […] This is not the conventional paint application procedure for aluminum alloys. Under normal service conditions, aluminum alloys are first subjected to a hexavalent chromium-containing conversion coating prior to primer application. However, the conversion coating was omitted so that the performance of the pigment alone could be evaluated and not the synergistic effects of hexavalent chromium (in the conversion coating) or even of barrier films (in the phosphate or anodized coatings). Multiple samples of specific pigment compositions were prepared and tested. […] The chromate pigments were prepared identically to those used to test CoIII composition variations. PVB wash primers containing various pigment formulations were evaluated by exposing them to static salt fog (ASTM B-117) and cyclic Prohesiomm (ASTM G-85.5) accelerated corrosion tests. ASTM B-117 is a traditional corrosion “proof” test that has little relation to a real working environment. This accelerated corrosion test exposes samples to a constant salt-water fog and is a de facto test of solubility for corrosion inhibitors. […] This is particularly true of inhibitors and compounds that have not been fully optimized with respect to solubility. ASTM G-85.5 (ProhesionTM) is a cyclic corrosion test that more closely resembles real working environments. This accelerated corrosion test exposes samples to a cycle of fog of dilute salt and ammonium sulfate at room temperature followed by forced-air drying at an elevated temperature. This is a more realistic test of the ability of a compound to inhibit corrosion. Results of these tests can be combined to gain insight into how a particular coating or compound will perform relative to a standard as well as helping identify strengths and weaknesses in the performance of the material. ASTM D-1654 evaluation standard for painted or coated specimens subjected to corrosive environments was used to evaluate the performance of the coatings. After the paint dried for 24 hours, each plate was scribed with an X and the plate edges were sealed with PVC tape to eliminate corrosion edge effects. Two visual observations are associated with this rating test. […]

[3] = ASTM B-117 static salt fog test of PVB wash primer with pigment, rated by ASTM D-1654; details: ASTM D-1654 rating; for 2024-T3 B-117 Proc. A / 7075-T6 B-117 Proc. A: failure at scribe; for 2024-T3 B-117 Proc. B / 7075-T6 B-117 Proc. B: failure in unscribed areas
Procedure: as §1

[4] = 135 hours of both ASTM B-117 and G-85.5, identical molar concentrations of trivalent cobalt, 2024-T3 and 7075-T6
[5] = 144 hours, inhibitor conc. 1.49 × 10^−3 M (20% of Cr)
[6] = 139 hours, inhibitor conc. 7.44 × 10^−4 M (10% of Cr)
[7] = 117 hours, inhibitor conc. 1.49 × 10^−3 M (20% of Cr)
[8] = 139 hours, inhibitor conc. 1.49 × 10^−3 M (20% of Cr)
[9] = 139 hours, inhibitor conc. 3.72 × 10^−3 M (50% of Cr)

[O]=[Co][O][Co]=[O] [CO2O3, Co2O3, reference compound]
corrosion resistance of trivalent cobalt pigments in PVB wash primer [1, 4]: no discernable corrosion resistance at all

N.N.N.N.N.N.[Cl-].[Cl-].[Cl-].[Co+3] [hexaaminecobalt(III) chloride]
corrosion resistance of trivalent cobalt pigments in PVB wash primer [1]: performed very well in the early stages of the test and then failed as the test progressed

F[Si-2](F)(F)(F)(F)F.F[Si-2](F)(F)(F)(F)F.F[Si-2](F)(F)(F)(F)F.N.N.N.N.N.N.N.N.N.N.N.N.[Co+3].[Co+3] [hexaaminecobalt(III) hexafluorosilicate]
corrosion resistance of trivalent cobalt pigments in PVB wash primer [1, 4]: performed the best of all

N.N.N.N.N.N.N.N.N.N.N.N.[Co+3].[Co+3].[O]=[Mo](=[O])([O-])[O-].[O]=[Mo](=[O])([O-])[O-].[O]=[Mo](=[O])([O-])[O-] [hexaaminecobalt(III) molybdate]
corrosion resistance of trivalent cobalt pigments in PVB wash primer [1]: a small amount of corrosion resistance; also recorded: performed the best of these three pigment compounds

N.N.N.N.N.N.N.N.N.N.N.N.[Co+3].[Co+3].[O]=[W](=[O])([O-])[O-].[O]=[W](=[O])([O-])[O-].[O]=[W](=[O])([O-])[O-] [hexaaminecobalt(III) tungstate]
corrosion resistance of trivalent cobalt pigments in PVB wash primer [1]: a small amount of corrosion resistance

barium 10-molybdocobaltate
2024-T3 G-85 Proc. A [2, 5]: 7
7075-T6 G-85 Proc. A [2, 5]: 7
2024-T3 G-85 Proc. B [2, 5]: 7
7075-T6 G-85 Proc. B [2, 5]: 7
2024-T3 B-117 Proc. A [3, 5]: 7
7075-T6 B-117 Proc. A [3, 5]: 6
2024-T3 B-117 Proc. B [3, 5]: 6
7075-T6 B-117 Proc. B [3, 5]: 5

barium 11-tungstophosphocobaltate
2024-T3 G-85 Proc. A [2, 6]: 7
7075-T6 G-85 Proc. A [2, 6]: 7
2024-T3 G-85 Proc. B [2, 6]: 7 and 6
7075-T6 G-85 Proc. B [2, 6]: 6
2024-T3 B-117 Proc. A [3, 6]: 7
7075-T6 B-117 Proc. A [3, 6]: 7
2024-T3 B-117 Proc. B [3, 6]: 6
7075-T6 B-117 Proc. B [3, 6]: 6

calcium 6-molybdocobaltate
2024-T3 G-85 Proc. A [2, 7]: 8
7075-T6 G-85 Proc. A [2, 7]: 8
2024-T3 G-85 Proc. B [2, 7]: 7
7075-T6 G-85 Proc. B [2, 7]: 8
2024-T3 B-117 Proc. A [3, 7]: 7 and 6
7075-T6 B-117 Proc. A [3, 7]: 7
2024-T3 B-117 Proc. B [3, 7]: 5 and 6
7075-T6 B-117 Proc. B [3, 7]: 6

calcium 10-molybdocobaltate
2024-T3 G-85 Proc. A [2, 5]: 9
7075-T6 G-85 Proc. A [2, 5]: 8 and 9
2024-T3 G-85 Proc. B [2, 5]: 8
7075-T6 G-85 Proc. B [2, 5]: 7 and 8
2024-T3 B-117 Proc. A [3, 5]: 7
7075-T6 B-117 Proc. A [3, 5]: 7 and 6
2024-T3 B-117 Proc. B [3, 5]: 6
7075-T6 B-117 Proc. B [3, 5]: 6

calcium 10-vanadatocobaltate
2024-T3 G-85 Proc. A [2, 8]: 7 and 8
7075-T6 G-85 Proc. A [2, 8]: 7
2024-T3 G-85 Proc. B [2, 8]: 6
7075-T6 G-85 Proc. B [2, 8]: 6
2024-T3 B-117 Proc. A [3, 8]: 8
7075-T6 B-117 Proc. A [3, 8]: 7
2024-T3 B-117 Proc. B [3, 8]: 7
7075-T6 B-117 Proc. B [3, 8]: 6

hexaaminecobalt(III) phosphomolybdate
corrosion resistance of trivalent cobalt pigments in PVB wash primer [1, 4]: a small amount of corrosion resistance; also recorded: performed the worst

magnesium 10-molybdocobaltate
2024-T3 G-85 Proc. A [2, 5]: 9 and 8
7075-T6 G-85 Proc. A [2, 5]: 9
2024-T3 G-85 Proc. B [2, 5]: 8 and 7
7075-T6 G-85 Proc. B [2, 5]: 7 and 8
2024-T3 B-117 Proc. A [3, 5]: 7
7075-T6 B-117 Proc. A [3, 5]: 7
2024-T3 B-117 Proc. B [3, 5]: 6
7075-T6 B-117 Proc. B [3, 5]: 6

magnesium 10-vanadatocobaltate
2024-T3 G-85 Proc. A [2, 8]: 8 and 9
7075-T6 G-85 Proc. A [2, 8]: 8 and 9
2024-T3 G-85 Proc. B [2, 8]: 7 and 8
7075-T6 G-85 Proc. B [2, 8]: 7 and 8
2024-T3 B-117 Proc. A [3, 8]: 7 and 6
7075-T6 B-117 Proc. A [3, 8]: 7
2024-T3 B-117 Proc. B [3, 8]: 7
7075-T6 B-117 Proc. B [3, 8]: 7

magnesium periodatocobaltate
2024-T3 G-85 Proc. A [2, 9]: 7 and 8
7075-T6 G-85 Proc. A [2, 9]: 7
2024-T3 G-85 Proc. B [2, 9]: 7 and 8
7075-T6 G-85 Proc. B [2, 9]: 7
2024-T3 B-117 Proc. A [3, 9]: 7
7075-T6 B-117 Proc. A [3, 9]: 7
2024-T3 B-117 Proc. B [3, 9]: 6
7075-T6 B-117 Proc. B [3, 9]: 6

sodium 10-vanadatocobaltate
2024-T3 G-85 Proc. A [2, 8]: 8
7075-T6 G-85 Proc. A [2, 8]: 7
2024-T3 G-85 Proc. B [2, 8]: 7
7075-T6 G-85 Proc. B [2, 8]: 6
2024-T3 B-117 Proc. A [3, 8]: 9
7075-T6 B-117 Proc. A [3, 8]: 6
2024-T3 B-117 Proc. B [3, 8]: 8
7075-T6 B-117 Proc. B [3, 8]: 7

strontium 10-molybdocobaltate
2024-T3 G-85 Proc. A [2, 5]: 7
7075-T6 G-85 Proc. A [2, 5]: 7
2024-T3 G-85 Proc. B [2, 5]: 6
7075-T6 G-85 Proc. B [2, 5]: 6
2024-T3 B-117 Proc. A [3, 5]: 6 and 7
7075-T6 B-117 Proc. A [3, 5]: 7 and 6
2024-T3 B-117 Proc. B [3, 5]: 5
7075-T6 B-117 Proc. B [3, 5]: 6 and 5

strontium 10-vanadatocobaltate
2024-T3 G-85 Proc. A [2, 8]: 7
7075-T6 G-85 Proc. A [2, 8]: 6
2024-T3 G-85 Proc. B [2, 8]: 6
7075-T6 G-85 Proc. B [2, 8]: 5
2024-T3 B-117 Proc. A [3, 8]: 7
7075-T6 B-117 Proc. A [3, 8]: 6
2024-T3 B-117 Proc. B [3, 8]: 6
7075-T6 B-117 Proc. B [3, 8]: 5

zinc 10-molybdocobaltate
2024-T3 G-85 Proc. A [2, 5]: 6 and 7
7075-T6 G-85 Proc. A [2, 5]: 7
2024-T3 G-85 Proc. B [2, 5]: 7 and 6
7075-T6 G-85 Proc. B [2, 5]: 6
2024-T3 B-117 Proc. A [3, 5]: 7
7075-T6 B-117 Proc. A [3, 5]: 7
2024-T3 B-117 Proc. B [3, 5]: 7
7075-T6 B-117 Proc. B [3, 5]: 7 and 5

zinc 10-vanadatocobaltate
2024-T3 G-85 Proc. A [2, 8]: 7
7075-T6 G-85 Proc. A [2, 8]: 7
2024-T3 G-85 Proc. B [2, 8]: 6
7075-T6 G-85 Proc. B [2, 8]: 6
2024-T3 B-117 Proc. A [3, 8]: 9
7075-T6 B-117 Proc. A [3, 8]: 8 and 9
2024-T3 B-117 Proc. B [3, 8]: 9 and 8
7075-T6 B-117 Proc. B [3, 8]: 8 and 9
